# Experimental data published in doi:10.1101/2024.03.18.584035v1 (biorxiv, 2024).
# Target: T1, olTRPM2 (Oryzias latipes, UniProt H2MNZ1)
# T1 sequence (H2MNZ1 1-1431): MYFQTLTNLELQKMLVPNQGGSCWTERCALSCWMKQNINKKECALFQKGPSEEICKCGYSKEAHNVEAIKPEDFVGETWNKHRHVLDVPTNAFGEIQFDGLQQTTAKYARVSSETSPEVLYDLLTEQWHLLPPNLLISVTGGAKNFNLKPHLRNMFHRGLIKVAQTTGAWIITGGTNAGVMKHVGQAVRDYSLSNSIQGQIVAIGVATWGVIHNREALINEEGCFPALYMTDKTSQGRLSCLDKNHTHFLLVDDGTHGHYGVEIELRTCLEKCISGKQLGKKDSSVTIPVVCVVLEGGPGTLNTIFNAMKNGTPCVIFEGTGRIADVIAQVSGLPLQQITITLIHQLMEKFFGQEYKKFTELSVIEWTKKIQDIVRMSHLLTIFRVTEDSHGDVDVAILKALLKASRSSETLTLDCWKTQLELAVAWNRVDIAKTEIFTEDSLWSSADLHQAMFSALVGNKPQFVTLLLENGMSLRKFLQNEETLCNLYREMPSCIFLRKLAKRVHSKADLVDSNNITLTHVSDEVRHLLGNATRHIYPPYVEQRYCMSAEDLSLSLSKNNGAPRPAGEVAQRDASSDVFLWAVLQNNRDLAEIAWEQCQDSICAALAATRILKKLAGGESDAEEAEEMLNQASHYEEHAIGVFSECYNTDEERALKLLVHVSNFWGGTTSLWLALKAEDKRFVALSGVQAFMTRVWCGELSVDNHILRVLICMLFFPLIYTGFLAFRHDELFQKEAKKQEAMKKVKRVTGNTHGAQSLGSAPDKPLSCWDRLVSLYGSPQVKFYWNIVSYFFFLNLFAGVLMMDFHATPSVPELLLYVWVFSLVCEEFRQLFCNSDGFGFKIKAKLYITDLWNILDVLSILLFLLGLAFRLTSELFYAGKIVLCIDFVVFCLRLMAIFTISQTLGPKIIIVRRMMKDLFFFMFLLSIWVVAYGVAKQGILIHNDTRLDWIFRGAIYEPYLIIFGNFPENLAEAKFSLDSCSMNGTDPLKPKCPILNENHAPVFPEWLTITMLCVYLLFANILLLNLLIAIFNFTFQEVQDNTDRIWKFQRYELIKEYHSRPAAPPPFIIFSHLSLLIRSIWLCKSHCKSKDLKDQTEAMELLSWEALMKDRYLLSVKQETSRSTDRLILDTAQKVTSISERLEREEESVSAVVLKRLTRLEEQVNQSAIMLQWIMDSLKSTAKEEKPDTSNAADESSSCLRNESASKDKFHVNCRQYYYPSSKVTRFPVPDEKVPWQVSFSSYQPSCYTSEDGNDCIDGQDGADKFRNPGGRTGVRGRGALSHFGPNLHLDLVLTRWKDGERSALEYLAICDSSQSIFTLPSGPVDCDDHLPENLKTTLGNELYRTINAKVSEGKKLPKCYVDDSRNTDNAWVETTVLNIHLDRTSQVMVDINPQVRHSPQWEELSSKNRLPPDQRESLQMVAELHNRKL
# Assay: whole-cell patch clamp, HEK293T
# Type: cell-based
# Details: intracellular ADPR; room temperature; pH 7.4; -80 mV; agonist
smiles,measurement,value
"Nc1ncnc2c1ncn2[C@@H]1O[C@H](COP(=O)(O)OP(=O)(O)OC[C@H]2OC(O)[C@H](O)[C@@H]2O)[C@@H](O)[C@H]1O (stereo partly shown) [ADPR, adenosine diphosphate ribose]",EC50,1100 ± 800 nM
